System: H. pylori clinical isolate 1735 (HP-1735)
Experiment: Antibacterial sensitivity / zone of growth inhibition by well/disc diffusion method
Type: cell-based, Helicobacter pylori
Conditions: for zone of growth inhibition: clinical isolate 1735; for Antibiotic susceptibility (disc diffusion): strain HP-1735
[1] = antibiotic concentration 30 µg/disk

Structure (SMILES) | zone of growth inhibition [1] | Antibiotic susceptibility (disc diffusion) (amoxicillin criterion) | zone of growth inhibition compared with dietary antibacterial composition (H. pylori clinical isolate 1735) | zone of growth inhibition (antibiotic concentration 15 µg/disk) | Antibiotic susceptibility (disc diffusion) (clarithromycin and tetracycline criterion)
CC1(C)S[C@@H]2[C@H](NC(=O)[C@H](N)c3ccc(O)cc3)C(=O)N2[C@H]1C(=O)O [AMO, Amoxicillin] | 50 mm | sensitive | – | – | –
CC[C@H]1OC(=O)[C@H](C)[C@@H](O[C@H]2C[C@@](C)(OC)[C@@H](O)[C@H](C)O2)[C@H](C)[C@@H](O[C@@H]2O[C@H](C)C[C@H](N(C)C)[C@H]2O)[C@](C)(OC)C[C@@H](C)C(=O)[C@H](C)[C@@H](O)[C@]1(C)O [CLA, Clarithromycin] | – | – | less zone of growth inhibition | 8 mm | resistant (≦30 mm for clarithromycin and tetracycline)
CN(C)[C@@H]1C(O)=C(C(N)=O)C(=O)[C@@]2(O)C(O)=C3C(=O)c4c(O)cccc4[C@@](C)(O)[C@H]3C[C@@H]12 [TET, Tetracycline] | 45 mm | – | – | – | –

— US20090175842A1, “DIETARY ANTI-BACTERIAL COMPOSITIONS” (priority 2006, published 2009)
